Laboratory results: patent US8101760B2, “Glucocorticoid receptor modulator and methods of use” (Eli Lilly and Company, priority 2007, dated 2012)
Read-outs that look alike come from different tables or passages of the source.

System: carrageenan-induced paw edema
Assay: Carrageenan-induced paw edema (CPE) model
Format: in vivo, rat
Conditions: for ED50: rat, oral gavage 2 h before carrageenan, 3 h after injection, mean of 5
Description: Carrageenans are a group of polysaccharides which can induce an acute inflammatory response in animals. Cardinal signs of inflammation including edema, hyperalgesia and erythema are developed in the injection site immediately following injection. The CPE model (Winter et al., Proc. Soc. Exp. Biol. Med. 111, 544-547, 1962) is a recognized model of inflammation and can be used to evaluate the antinflammatory effects of glucocorticoid receptor ligands.
To evaluate the anti-inflammatory effects of Compound (I), the Compound (I) is formulated in a vehicle comprising 0.5% carboxymethyl cellulose and 0.25% Tween 80 then administered orally via gavage to male Sprague-Dawley rats (180-200 g) (Harlan Industries, Indianapolis, Ind.). For comparison, prednisolone is administered orally in the same vehicle. Two hours later, 1% carrageenan in 50 μL of 0.9% pyrogen free saline is injected into the subplantar regions of the right hind paw. Rats are euthanized by CO2 at 3 hours after the carrageenan injection. Paws are removed then weighed using a microbalance. Paws are then immediately immersed into liquid nitrogen until frozen. Frozen paws are dissected by making several cuts on the paw surface then centrifuged to extract the exudates. Exudate levels of IL-1β, a cytokine generated during the inflammatory response, is then measured by ELISA (R&D Systems, Inc., Catalog No. RLB00) using standard techniques. Total paw protein is also measured using a protein assay kit (Pierce Biotechnology, Inc., Rockford, Ill., U.S.A., Catalog No. 1856210) and the absolute level of IL-1β is normalized to yield a concentration value of ng IL-1β/mg total protein.

`C[C@]12C=CC(=O)C=C1CC[C@@H]1[C@@H]2[C@@H](O)C[C@@]2(C)[C@H]1CC[C@]2(O)C(=O)CO` [prednisolone, reference compound] was tested, and the “potency relative to Compound (I) (fold less potent)” value (rat CPE model, similar conditions) was “about 5 fold”, the ED50 (read-out: ED50, inhibition of carrageenan induced paw weight gain) was about 6.6 mg/kg and the ED50 (read-out: ED50, reduction of paw exudate levels of IL-1β) was under 1 mg/kg.
